From ChEMBL document CHEMBL1926664, “Synthesis and antiproliferative evaluation of 6-aryl-11-iminoindeno[1,2-c]quinoline derivatives” (2011)

Experiments:
MCF7 = test: Growth inhibition of human MCF7 cells after 72 hrs by XTT assay; type: functional; details: MCF7, 72 h
MDA-MB-231 = test: Growth inhibition of human MDA-MB-231 cells after 72 hrs by XTT assay; type: functional; details: MDA-MB-231, 72 h
A549 = test: Growth inhibition of human A549 cells after 72 hrs by XTT assay; type: functional; details: A549, 72 h
[1] = Growth inhibition of human H1299 cells after 72 hrs by XTT assay; type: functional; details: NCI-H1299, 72 h
HepG2 = test: Growth inhibition of human HepG2 cells after 72 hrs by XTT assay; type: functional; details: HepG2, 72 h
[2] = Growth inhibition of human Hep3B cells after 72 hrs by XTT assay; type: functional, Hep 3B2

SMILES	GI50 (MCF7)	GI50 (MDA-MB-231)	GI50 (A549)	GI50 [1]	GI50 (HepG2)	GI50 [2]
COc1ccc(-c2nc3ccccc3c3c2-c2ccc(OC)cc2/C3=N\O)cc1	> 10 µM	> 10 µM	> 10 µM	> 10 µM	> 10 µM	> 10 µM
Oc1ccc(-c2nc3ccc(F)cc3c3c2-c2ccc(O)cc2/C3=N\OCCN2CCCC2)cc1	6.26 µM	0.68 µM	0.84 µM	6.48 µM	5.04 µM	0.64 µM
CN(C)CCCO/N=C1\c2cc(O)ccc2-c2c(-c3ccc(O)cc3)nc3ccccc3c21	6.06 µM	0.93 µM	0.5 µM	6.94 µM	1.55 µM	0.67 µM
COc1ccc(-c2nc3ccccc3c3c2-c2ccc(OC)cc2/C3=N\OCCN2CCCC2)cc1	6.71 µM	5.33 µM	5.27 µM	6.31 µM	5.48 µM	4.68 µM
COc1ccc(-c2nc3ccccc3c3c2-c2ccc(OC)cc2/C3=N\OCCN2CCCCC2)cc1	> 10 µM	> 10 µM	> 10 µM	> 10 µM	> 10 µM	8.29 µM
CC[C@@]1(O)C(=O)OCc2c1cc1n(c2=O)Cc2cc3c(CN(C)C)c(O)ccc3nc2-1 [TOPOTECAN]	> 10 µM	0.078 µM	–	> 10 µM	–	0.22 µM
CCc1c2c(nc3ccc(OC(=O)N4CCC(N5CCCCC5)CC4)cc13)-c1cc3c(c(=O)n1C2)COC(=O)[C@]3(O)CC [IRINOTECAN]	> 10 µM	9.17 µM	> 10 µM	> 10 µM	–	–
CN(C)CCCO/N=C1\c2cc(O)ccc2-c2c(-c3ccc(O)cc3)nc3ccc(F)cc3c21	6.28 µM	4.74 µM	6.46 µM	6.3 µM	6.24 µM	0.69 µM
Oc1ccc(-c2nc3ccccc3c3c2-c2ccc(OCCN4CCCC4)cc2/C3=N\OCCN2CCCC2)cc1	6.42 µM	0.68 µM	0.79 µM	6.51 µM	4.09 µM	0.78 µM
O/N=C1\c2cc(O)ccc2-c2c(-c3ccc(O)cc3)nc3ccc(F)cc3c21	8.77 µM	8.41 µM	> 10 µM	> 10 µM	> 10 µM	7.6 µM
CN(C)CCCO/N=C1\c2cc(O)ccc2-c2c(-c3ccc(OCCCN(C)C)cc3)nc3ccccc3c21	6.65 µM	0.63 µM	2.03 µM	0.69 µM	3.77 µM	0.61 µM
Oc1ccc2c(c1)/C(=N\OCCN1CCCC1)c1c-2c(-c2ccc(OCCN3CCCC3)cc2)nc2ccccc12	5.92 µM	0.51 µM	0.54 µM	0.57 µM	4.11 µM	0.92 µM
Oc1ccc2c(c1)/C(=N\OCCN1CCCC1)c1c-2c(-c2ccc(OCCN3CCCC3)cc2)nc2ccc(F)cc12	6.04 µM	0.48 µM	0.31 µM	0.7 µM	1.08 µM	0.47 µM
COc1ccc(-c2nc3ccc(OC)cc3c3c2-c2ccc(OC)cc2/C3=N\O)cc1	> 10 µM	> 10 µM	> 10 µM	> 10 µM	> 10 µM	> 10 µM
Oc1ccc(-c2nc3ccccc3c3c2-c2ccc(O)cc2/C3=N\OCCN2CCCC2)cc1	7.83 µM	0.58 µM	0.88 µM	6.06 µM	5.74 µM	0.52 µM
CN(C)CCCO/N=C1\c2cc(OCCCN(C)C)ccc2-c2c(-c3ccc(O)cc3)nc3ccc(F)cc3c21	6.25 µM	0.67 µM	0.42 µM	0.84 µM	0.66 µM	0.56 µM
COc1ccc(-c2nc3ccc(OC)cc3c3c2-c2ccc(OC)cc2/C3=N\OCCN2CCCC2)cc1	6.25 µM	5.15 µM	6.42 µM	6.54 µM	6.03 µM	6.17 µM
COc1ccc(-c2nc3ccc(OC)cc3c3c2-c2ccc(OC)cc2/C3=N\OCCCN(C)C)cc1	6.3 µM	6.13 µM	6.62 µM	5.7 µM	5.95 µM	6.49 µM
COc1ccc(-c2nc3ccc(F)cc3c3c2-c2ccc(OC)cc2/C3=N\OCCN2CCCC2)cc1	6.36 µM	5.99 µM	9.24 µM	3.15 µM	9.46 µM	3.11 µM
Oc1ccc(-c2nc3ccc(F)cc3c3c2-c2ccc(OCCN4CCCC4)cc2/C3=N\OCCN2CCCC2)cc1	6.2 µM	0.33 µM	0.53 µM	7.09 µM	5.71 µM	0.23 µM
COc1ccc(-c2nc3ccc(F)cc3c3c2-c2ccc(OC)cc2/C3=N\OCCN2CCCCC2)cc1	> 10 µM	> 10 µM	> 10 µM	> 10 µM	> 10 µM	> 10 µM
COc1ccc(-c2nc3ccc(F)cc3c3c2-c2ccc(OC)cc2/C3=N\OCCCN(C)C)cc1	6.18 µM	0.7 µM	0.91 µM	0.61 µM	5.75 µM	0.66 µM
COc1ccc(-c2nc3ccc(F)cc3c3c2-c2ccc(OC)cc2/C3=N\O)cc1	> 10 µM	> 10 µM	> 10 µM	> 10 µM	> 10 µM	> 10 µM
CN(C)CCCO/N=C1\c2cc(OCCCN(C)C)ccc2-c2c(-c3ccc(O)cc3)nc3ccccc3c21	> 10 µM	3.07 µM	2.1 µM	5.3 µM	4.96 µM	5.41 µM
COc1ccc(-c2nc3ccccc3c3c2-c2ccc(OC)cc2/C3=N\OCCCN(C)C)cc1	6.57 µM	7.01 µM	6.69 µM	6.61 µM	6.54 µM	3.14 µM
O/N=C1\c2cc(O)ccc2-c2c(-c3ccc(O)cc3)nc3ccccc3c21	> 10 µM	8.47 µM	> 10 µM	> 10 µM	> 10 µM	> 10 µM
